From patent US7741472B2, “Polynucleotide containing a phosphate mimetic” (Roche Diagnostics Operations, Inc., priority 2005, dated 2010)
Strand notation (5' to 3'): a small letter for the sugar, then the base; units joined by * are phosphorothioate-linked, units joined directly phosphodiester-linked; [ ] holds rarer units or linkages, { } end groups; capitals alone tell only the bases. [RhoB] = phosphoramidate linkage P=N-S(O)2-rhodamine-B replacing P=O; d = 2'-deoxy (DNA); {P} = phosphate

Experiments:
[1] = test system: factor V DNA fragment, wild type; assay: Melting curve analysis with lissamine acceptor probe, wild type; assay type: binding; details: 10^6 copies
Description: (§1) A teal time PCR and melting curve analysis were carried out according to example 6 for the amplification of 10^4 and 10^6 copies of a factor V DNA fragment. A fluorescein donor probe according to example 6 (SEQ ID NO: 4) which was not further modified and a FRET acceptor probe according to example 7b (SEQ ID NO: 3) were used for this.
(§2) The melting point for the wild type was determined as 64.69° C. and 56.24° C. was determined as the melting point for the mutant (10^6 copies).

[2] = test system: factor V DNA fragment, mutant; assay: Melting curve analysis with lissamine acceptor probe, mutant; assay type: binding; details: 10^6 copies
Description: as §1, §2

[3] = test system: factor V DNA; assay: Real time PCR of factor V DNA with fluorescein/lissamine FRET hybridization probes; assay type: biochemical; details: LIGHTCYCLER 2.0, 610 nm channel, unmodified fluorescein donor probe
Description: Primers were used in combination with a pair of fluorescein/lissamine FRET hybridization probes where Lissamine (rhodamineB) acted as a FRET acceptor. Quantification curves were recorded and the cp value was determined as a function of the concentration of the target nucleic acid.
as §1
The fluorescence signal was measured in the 610 nm detection channel. The 610/530 background correction mode was used to normalize the raw signal. A cp value of 22 was determined for 10^6 copies and a cp of 26 was determined for 10^4 copies.

[4] = test system: human Factor V DNA; assay: Real time PCR with modified primers (crossing point); assay type: biochemical; details: LIGHTCYCLER 1.2, primer combinations SEQ ID NO: 1 / SEQ ID NO: 2, 640 nm channel
Description: A quantitative real time PCR of human Factor V DNA was carried out on a LIGHTCYCLER 1.2 instrument (Roche Diagnostics GmbH) in order to analyse the effect of phosphate mimetics on primer elongation. The P═N-pPh-NAc mimetic which was introduced at different positions of a primer pair used for amplification of human Factor V DNA. The modified primers were, synthesized according to example 4. Purification was done by the Reversed Phase chromatography of example 3 in the Trityl on mode. Detritylation was performed by treating with 80% acetic acid for 20 min.
This primers were used in combination with a pair of fluorescein/LIGHTCYCLER Red 640 FRET hybridization probes according to example 6. The Fluorescein probe and the 5′ LIGHTCYCLER Red 640 probe (SEQ ID NO: 3 and 4) were kept constant. Various combinations of modified and unmodified primers were tested. As reference unmodified primers were used. The effect on the crossing point which is a measure for the amplification efficiency was evaluated.
The real time monitoring was carried out over 45 cycles using the 2nd derivative threshold method in which, the fluorescence signal was measured in a detection channel that is specific for the LIGHTCYCLER Red 640 emission (at 640 nm) and the arithmetic background correction mode was used to normalize the initial signal.
The absolute fluorescence signals are measured as above in the 640 nm channel and subsequently the first derivative was calculated from this. The crossing points are shown in the following table as a measure for the amplification efficiency when using different modified primers.

Substance | melting point for the wild type [1] | melting point for the mutant [2] | cp value ([3]; 10^4 copies) | cp value ([3]; 10^6 copies) | Cp (crossing point, measure for the amplification efficiency) [4]
FRET acceptor probe according to example 7b: SEQ ID NO: 3 FRET acceptor probe; p* = P = NS(O)2-rhodamine-B (DNA dA[RhoB]dGdGdGdAdTdCdTdGdCdTdCdTdTdAdCdAdGdAdTdTdAdGdAdAdGdTdAdGdTdCdCdTdAdTdT-{P}) | 64.69 °C | 56.24 °C | 26 | 22 | 
5′ GAGAGACATCGCCTCTGGGCT p1A / 5′ TGTTATCACACTGGTGCTAA: primer combination; p1 is a P = N-pPh-NAc mimetic |  |  |  |  | 20.80
5′ GAGAGACATCGCCTCTGGGCTA / 5′ TGTTATCACACTGGTGCTAA: unmodified primer pair SEQ ID NO: 1 and 2, used as reference (DNA 1 GAGAGACATCGCCTCTGGGCTA; DNA 2 TGTTATCACACTGGTGCTAA; unmodified DNA) [reference compound] |  |  |  |  | 20.36
5′ GAGAGACATCGCCTCTGGGCTA / 5′ TGT TAT CAC ACT p1GGT GCT AA: primer combination; p1 is a P = N-pPh-NAc mimetic |  |  |  |  | 21.36
